The source of these data is patent publication US9499493B2, “2,4-pyrimidinediamine compounds and their uses” (Rigel Pharmaceuticals, Inc., priority 2002, dated 2016).

In one assay the test system is CHMC cells. Kind of assay: Phosphorylation of proteins downstream of Syk / LYN kinase in the FcεRI cascade, activated CHMC cells. It is filed as cell-based, human. The settings on record: FIG. 10.
The test system of assay [1] is cultured human mast cells (CHMC). The experiment in a line: CHMC low cell density IgE activation: tryptase assay. It is filed as cell-based. The settings on record: anti-IgE. In a few lines:
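Supernatant tryptase activity, assayed with substrate for 30 min at room temperature, served as the degranulation measure. Mast cells (1000-1500 per well depending on donor) sat 1 hr at 37° C in MT before a 30 min anti-IgE challenge at 37° C.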

Assay [2] in a line: Mouse model of allergic asthma (ovalbumin). The class given is in vivo. The settings on record: for methacoline-induced bronchocontriction: mouse, in vivo. From the text: Mice are sensitized to ovalbumin (chicken protein) in the presence of an adjuvant (Alum) by the intraperitoneal route on day 0 and day 7. One week later, mice are challenged intranasally with ovalbumin on Days 14, 15 and 16 (more stringent model) or on Day 14 (less stringent model). This sensitization and challenge regimen leads to airway hyperresponsiveness and inflammation in the lungs, which are two dominant characteristics of human allergic asthma. In the mouse model, the in vivo airway responses are measured using a whole body plethysmograph which determines the PENH (enhanced Pause, Buxco Electronics). The PENH is a dimensionless value comprised of the peak inspiratory flow (PIF), peak expiratory flow (PEF), time of inspiration, time of expiration and relaxation time, and is considered a validated parameter of airway responsiveness. Responses to allergen challenge (OVA) are compared with animals challenged with saline only. Twenty-four hours after challenge, mice are exposed to increasing doses of methacholine (muscarinic receptor agonist) which results in smooth muscle contraction. […] In addition, a cellular infiltrate in the airway is observed in ovalbumin challenged mice when compared with the saline challenged mice. This cellular infiltrate is mainly characterized by eosinophils, but a smaller influx of neutrophils and mononuclear cells is also present.
The use of this model for the evaluation of small molecule inhibitors of mast cell degranulation has been validated is several ways. First, using mast cell deficient mice (W/W^v) it has been shown that the ovalbumin-induced responses are dependent upon the presence of mast cells.

Assay [3] relates to cultured human mast cells (CHMC). Kind of assay: CHMC low cell density ionomycin activation: tryptase assay. The class given is cell-based.
Assay [4] relates to bone marrow derived mast cells (BMMC). The experiment in a line: BMMC high cell density IgE activation: hexosaminidase. It is filed as cell-based, mouse. The settings on record: anti-IgE, second part of TABLE 1, read-out: BMMC anti-IgE hexos. IC50. The essentials: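 IgE-sensitized BMMC at 1-3×10^6 cells/ml preincubated 1 hour at 37° C. with compound (0.5% DMSO), then stimulated 1 hour with DNP-BSA (6× stimulus 60 ng/ml). Supernatant hexosaminidase measured with 2 mM 4-methylumbelliferyl-N-acetyl-glucosaminide substrate at 37° C., read at 5–30 minutes.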

The test system of assay [5] is basophil cells. Kind of assay: Basophil IgE activation: histamine release assay. The class given is cell-based, human. The settings on record: Basophils, anti-IgE. The procedure: (§1) The basophil activation assay was carried out using whole human peripheral blood from donors allergic to dust mites with the majority of the red blood cells removed by dextran sedimentation. Human peripheral blood was mixed 1:1 with 3% dextran T500 and RBCs were allowed to settle for 20-25 min. The upper fraction was diluted with 3 volumes of D-PBS and cells were spun down for 10 min at 1500 rpm, RT. Supernatant was aspirated and cells were washed in an equal volume MT-buffer. Finally, cells were resuspended in MT-buffer containing 0.5% DMSO in the original blood volume. 80 uL cells were mixed with 20 uL compound in the presence of 0.5% DMSO, in triplicate, in a V-bottom 96-well tissue culture plate. A dose range of 8 compound concentrations was tested resulting in a 10-point dose response curve including maximum (stimulated) and minimum (unstimulated) response. […] The cells were stimulated for 30 minutes at 37° C., 5% CO2. The plate was spun for 10 min at 1500 rpm at room temperature and 80 uL the supernatant was harvested for histamine content analysis using the histamine ELISA kit supplied by Immunotech. The ELISA was performed according to supplier's instructions.

For assay [6], the system named is bone marrow derived mast cells (BMMC). The experiment in a line: BMMC high cell density ionomycin activation: hexosaminidase. The class given is cell-based, mouse. The settings on record: second part of TABLE 1, read-out: BMMC Ionomycin hexos. IC50.
The test system of assay [7] is basophil cells. The experiment in a line: Basophil ionomycin activation: histamine release assay. The settings on record: Basophils. It is filed as cell-based, human. The procedure: as §1
Assays for ionomycin-induced basophil cell degranulation were carried out as described for the Basophil IgE or Dustmite Activation Assay (Section 6.4.6, supra), with the exception that following incubation with compound, cells were stimulated with 20 μl of 2 μM ionomycin.

Assay [8] deals with cultured human mast cells (CHMC). The experiment in a line: CHMC high cell density IgE activation: hexos (hexosaminidase) release. The class given is cell-based. The settings on record: anti-IgE activation. In a few lines:
(§2)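 IgE-sensitized CHMC at 1-2×10^6 cells/ml were pretreated with compound for 1 h at 37 °C (0.5% DMSO final), then anti-IgE-stimulated for 1 h and supernatant collected. Hexosaminidase was read with a fluorogenic substrate. Pellets were re-incubated 7 h with compound before supernatant ELISAs.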

In the next assay the test system is B-cell line BJAB. The experiment in a line: BJAB toxicity, Cell Titer Glo assay. It is filed as cell-based. The settings on record: 18 hours incubation. The protocol:
Seed 50 μl cells (1×10^6/ml) into each well containing 50 μl compound. The final vehicle concentration is 0.5% DMSO, 1.5% MeOH. Shake plates for 1 minute to mix cells and compound. Incubate plates at 37° C. (5% CO2) for 18 hours. Next day, harvest 50 μl cells from each well, add to 50 μl Cell Titer Glo reagent ([…]). Shake plates for 1 minute. Read on luminometer.
A general note: Cellular ATP, detected with luciferase, serves as a proxy for viable cell number.

In assay [9] the test system is cultured human mast cells (CHMC). The experiment in a line: CHMC high cell density IgE activation: TNFalpha. The settings on record: anti-IgE activation; read-out: CHMC high density TNF-alpha. The class given is cell-based. The essentials: as §2
Assay [10] is described as follows: Sheep model of allergic asthma (Ascaris suum challenge). It is filed as in vivo. The settings on record: aqueous suspension. The protocol:
Sheep develop bronchoconstriction within minutes of exposure to inhaled antigen (Ascaris suum), with maximal airflow obstruction during the early allergic response (EAR). Release of preformed mast cell mediators is likely responsible for this early phase of airflow obstruction. […] In the sheep, AHR develops a few hours following antigen challenge, and can persist for up to 2 weeks.
In the sheep model of allergic asthma, sheep are administered aerosols of test article via an endotracheal tube, followed by an aerosol challenge with antigen extracted from the roundworm, Ascaris suum, to which the sheep are naturally allergic. Allergen challenge leads to direct bronchoconstriction (both EAR and LAR) and a persistent non-specific AHR. These three characteristics are similar to those seen in human allergic asthmatics. The activity of the test agent is determined by changes in the lung resistance (RL), which is calculated from measurements of transpulmonary pressure, flow, and respiratory volume. […] The LAR is a less pronounced increase in RL, which starts approximately 5-6 hours following allergen challenge and is resolved by 8 hours post-challenge. Twenty-four hours after the challenge, a dose response to carbachol is measured to determine the AHR, which is expressed as the dose of carbachol required to increase RL by 400% over baseline. (This measurement is referred to as the provocative concentration of carbachol that elicits a 400% increase in RL over baseline (PC400). The data are compared to historical control data for the same individual when administered a saline control aerosol and challenged with Ascaris suum.

A short description of assay [11]: Immediacy (time course) of inhibitory activity. The class given is cell-based. The settings on record: FIG. 5.
In assay [12] the test system is bone marrow derived mast cells (BMMC). Kind of assay: BMMC high cell density IgE activation: TNFalpha. The settings on record: anti-IgE, second part of TABLE 1, read-out: BMMC anti-IgE TNF-alpha IC50. It is filed as cell-based, mouse. The essentials: (§3)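 IgE-sensitized BMMC (1-3×10^6 cells/ml, MT buffer) were pretreated with compound for 1 h at 37 °C in 0.5% DMSO, then stimulated with DNP-BSA (6× stimulus, 60 ng/ml) for 1 h. Supernatant was taken, and cells were re-incubated 4–5 h in WEI-conditioned medium with compound. Mediators were quantified by ELISA.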

Assay [13] shares this test system. The experiment in a line: BMMC high cell density IgE activation: histamine. The class given is cell-based, mouse. The settings on record: anti-IgE, second part of TABLE 1. In a few lines: as §3
For assay [14] the test system is unchanged. The experiment in a line: BMMC high cell density IgE activation: LTC4. The class given is cell-based, mouse. The settings on record: anti-IgE, second part of TABLE 1. The essentials:
as §3

Another assay relates to Jurkat cells. Kind of assay: Jurkat toxicity, Cell Titer Glo assay. The class given is cell-based. The settings on record: 18 hours incubation. The procedure: Seed 50 μl cells (1×10^6/ml) into each well containing 50 μl compound. […] Shake plates for 1 minute to mix cells and compound. Incubate plates at 37° C. […] Next day, harvest 50 μl cells from each well, add to 50 μl Cell Titer Glo reagent ([…]). Shake plates for 1 minute. Read on luminometer.

The subject of assay [15] is cultured human mast cells (CHMC). Kind of assay: CHMC high cell density IgE activation: histamine. The settings on record: anti-IgE activation. It is filed as cell-based. In a few lines: as §2
Where [16] appears, read: 45 mg/sheep, pretreatment 60 min.

A value given as a limit tells only on which side of the number the result lay.

Consider `CC(C)(C)n1nc(-c2ccc(Cl)cc2)c2c(N)ncnc21` [PP2, reference compound], for which, in the assay with CHMC cells, the “phosphorylation of proteins downstream of LYN kinase” value is given as “inhibition”.

Take `CNC(=O)COc1cccc(Nc2ncc(F)c(Nc3ccc4c(n3)NC(=O)CO4)n2)c1` [R921304, 5-Fluoro-N2-(3-methylaminocarbonylmethyleneoxyphenyl)-N4-[2H-pyrido[3,2-b]-1,4-oxazin-3(4H)-one-6-yl]-2,4-pyrimidinediamine]: the IC50 was 85 nM in assay [1] and above 10000 nM in assay [3]. Besides, the “ovalbumin-induced airway hyperresponsiveness to methacholine” value in [2] (intranasal, 20 mg/kg, 10 consecutive days (Day 7 through Day 16)) is on record as “able to inhibit”.

In the case of `Fc1cnc(Nc2ccc3c(c2)OC(F)(F)C(F)(F)O3)nc1Nc1ccc2c(c1)OC(F)(F)C(F)(F)O2` [R926037, N2,N4-Bis(3,4-tetrafluoroethylendioxyphenyl)-5-fluoro-2,4-pyrimidinediamine], the IC50 (in assay [4]; in the assay with basophil cells [5]; in assay [6]; in the assay on basophil cells [7]) was above 10000 nM throughout.

On to `CNC(=O)COc1cccc(Nc2ncc(F)c(Nc3ccc4c(c3)OCCO4)n2)c1` [R926495, N4-(3,4-Ethylenedioxyphenyl)-5-fluoro-N2-[3-(N-methylamino)carbonylmethyleneoxyphenyl]-2,4-pyrimidinediamine], for which the IC50 in assay [8] is 100 nM; in assay [4], 56 nM; with B-cell line BJAB, above 10000 nM; in [9], 362 nM; in assay [12], 77 nM; in assay [13], 89 nM. Moreover, the IC50 in assay [14] is 240 nM; in the assay with basophil cells [7] it was above 10000 nM; with Jurkat cells, above 10000 nM; in [3], above 10000 nM; in assay [15] it was 66 nM. Also, the “LAR and AHR (in words)” value in assay [10] (45 mg/sheep, 60 minutes prior to allergen challenge) is listed as “blocked”. In addition, the “AHR (% inhibition)” value in assay [10] (setting [16]) came out at 41%. Further, the “EAR (% inhibition)” value in assay [10] (setting [16]) stood at 33%. Also, the “LAR (% inhibition)” value in [10] (setting [16]) is 85%. For the same molecule, the “EAR (in words)” value in [10] is recorded as “greatly reduced”. The “onset of inhibitory activity” value in [11] is listed as “immediacy of the inhibitory activity”.

With `CCCC1O[C@@H]2C[C@H]3[C@@H]4CCC5=CC(=O)C=C[C@]5(C)[C@H]4[C@@H](O)C[C@]3(C)[C@]2(C(=O)CO)O1` (stereo partly drawn) [budesonide], the methacoline-induced bronchocontriction result in [2] is recorded as “inhibitory effect”.

Regarding `C[C@@H]1C[C@H]2[C@@H]3CCC4=CC(=O)C=C[C@]4(C)[C@@]3(F)[C@@H](O)C[C@]2(C)[C@@]1(O)C(=O)CO` [dexamethasone], the methacoline-induced bronchocontriction entry in assay [2] was “inhibitory effect”.
